# Experimental data taken from paper PMC6405875 (Scientific Reports, 2019).
# Changes are numbered by the printed parent chain. In names and notes the source's numbering stands.
# T1: hDAT Y88F/H547A (Homo sapiens, UniProt Q01959, H547A/Y88F)
# T1 construct: expressed in transfected cells; host or cells: rat PC12 cells (ATCC CRL-1721), pcDNA3.1+
# T1 sequence (Q01959 1-620 Y88F/H547A): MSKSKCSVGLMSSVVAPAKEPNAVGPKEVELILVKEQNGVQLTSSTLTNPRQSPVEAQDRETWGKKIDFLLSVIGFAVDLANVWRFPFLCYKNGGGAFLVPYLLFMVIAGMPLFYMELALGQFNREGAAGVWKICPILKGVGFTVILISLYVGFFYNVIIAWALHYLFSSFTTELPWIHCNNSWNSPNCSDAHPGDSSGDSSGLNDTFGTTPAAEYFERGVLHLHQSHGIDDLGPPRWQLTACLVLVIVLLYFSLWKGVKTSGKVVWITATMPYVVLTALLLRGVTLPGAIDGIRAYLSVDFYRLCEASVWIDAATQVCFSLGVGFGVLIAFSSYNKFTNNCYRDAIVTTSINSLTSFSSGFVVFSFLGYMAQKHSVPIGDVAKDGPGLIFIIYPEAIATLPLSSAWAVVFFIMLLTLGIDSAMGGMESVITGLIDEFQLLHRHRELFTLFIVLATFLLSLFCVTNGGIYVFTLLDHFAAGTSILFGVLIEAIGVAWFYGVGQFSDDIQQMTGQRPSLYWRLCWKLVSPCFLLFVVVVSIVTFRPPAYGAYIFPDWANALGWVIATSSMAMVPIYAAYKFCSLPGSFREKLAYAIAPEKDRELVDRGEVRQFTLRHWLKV
# T2: hDAT Y88F (Homo sapiens, UniProt Q01959, Y88F)
# T2 construct: expressed in transfected cells; host or cells: rat PC12 cells (ATCC CRL-1721), pcDNA3.1+
# T2 sequence (Q01959 1-620 Y88F): T1 sequence (Q01959 1-620 Y88F/H547A) with A547H
# T3: hDAT Y88A (Homo sapiens, UniProt Q01959, Y88A)
# T3 construct: expressed in transfected cells; host or cells: rat PC12 cells (ATCC CRL-1721)
# T3 sequence (Q01959 1-620 Y88A): T1 sequence (Q01959 1-620 Y88F/H547A) with F88A, A547H
# T4: hDAT Y88F/K92M/H547A (Homo sapiens, UniProt Q01959, H547A/K92M/Y88F)
# T4 sequence (Q01959 1-620 Y88F/K92M/H547A): T1 sequence (Q01959 1-620 Y88F/H547A) with K92M
# B1: hDAT Y88F/H547A (Homo sapiens; H547A/Y88F) (protein)
# chain: T1 sequence (Q01959 1-620 Y88F/H547A)
# Legend:
# [1] = biological target: T5, WT hDAT (Homo sapiens, UniProt Q01959); test: [3H]DA uptake in PC12 cells transfected with WT hDAT; format: cell-based
# T5 construct: expressed in transfected cells; host or cells: rat PC12 cells (ATCC CRL-1721), pcDNA3.1+
# Protocol: (§1) In the current study, we used rat pheochromocytoma cells (PC12 cells, CRL-1721, American Type Culture Collection (ATCC), Manassas, VA), which were maintained in Dulbecco’s modified eagle medium (DMEM, Life Technologies, Carlsbad, CA) supplemented with 15% horse serum, 2.5% bovine calf serum, 2 mM glutamine and antibiotics, 100 U/mL penicillin and 100 µg/mL streptomycin. Cells were cultured at 37 °C in a 5% CO2 incubator. Once cells were growing to 100% confluence on plates, cells were seeded at a density of 1 × 10^5 cells/cm^2 in 24-well plates and transfected with WT hDAT or mutants by Lipofectamine 2000 (Life Technologies). Twenty-four hours after transfection, intact cells or cell suspensions were used for experiments.
# (§2) Twenty-four hours after transfection, cells in 24-well plates were washed twice with Krebs-Ringer-HEPES (KRH) buffer (final concentration in mM: 125 NaCl, 5 KCl, 1.5 MgSO4, 1.25 CaCl2, 1.5 KH2PO4, 10 D-glucose, 25 HEPES, 0.1 EDTA, 0.1 pargyline, and 0.1 L-ascorbic acid; pH 7.4) and incubated with nomifensine (10 µM, final concentration) as nonspecific uptake for 10 min at room temperature. […] The reaction was terminated by removal of solution from wells and quickly washed three times with ice cold KRH buffer. Cells were then lysed in 500 μL of 1% SDS for an hour and radioactivity was measured using a liquid scintillation counter (Tri-Carb 2900TR; PerkinElmer Life and Analytical Sciences, Waltham, MA).
# (§3) In brief, cells were dissociated with trypsin/EDTA (0.25%/0.1%, 1 mL for one 10 cm dish) and resuspended in culture medium and incubated at room temperature for 10 min. The dissociated cells were collected by centrifugation at 400 × g for 5 min at 4 °C and washed once with phosphate-buffered saline followed by additional 5 min centrifugation (400 × g, 4 °C). Finally, the resulted cell pellets were resuspended in KRH assay buffer. […] The update reaction was terminated by immediate filtration through Whatman GF/B glass filters (presoaked with 1 mM pyrocatechol for 3 h) followed by three washes with 3 mL of ice-cold KRH buffer containing pyrocatechol using a Brandel cell harvester (model M-48; Brandel Inc., Gaithersburg, MD). Radioactivity was determined as described above.
# [2] = biological target: T1, hDAT Y88F/H547A; test: [3H]DA uptake in PC12 cells transfected with Y88F/H547A hDAT; format: cell-based
# Protocol: as §1, §2, §3
# [3] = biological target: T5, WT hDAT; test: AMPH-stimulated [3H]DA efflux, WT hDAT; format: cell-based; settings: AMPH 5–250 µM, fractional release of cellular [3H]DA
# Protocol: as §1
# [4] = biological target: T2, hDAT Y88F; test: AMPH-stimulated [3H]DA efflux, Y88F hDAT; format: cell-based; settings: AMPH 5–250 µM, fractional release of cellular [3H]DA
# Protocol: as §1
# [5] = biological target: T3, hDAT Y88A; test: AMPH-stimulated [3H]DA efflux, Y88A hDAT; format: cell-based; settings: AMPH 5–250 µM, fractional release of cellular [3H]DA
# Protocol: as §1
# [6] = biological target: T6, hDAT H547A (Homo sapiens, UniProt Q01959, H547A); test: AMPH-stimulated [3H]DA efflux, H547A hDAT; format: cell-based; settings: AMPH 5–250 µM, fractional release of cellular [3H]DA
# T6 construct: expressed in transfected cells; host or cells: rat PC12 cells (ATCC CRL-1721), pcDNA3.1+
# Protocol: as §1
# [7] = biological target: T1, hDAT Y88F/H547A; test: AMPH-stimulated [3H]DA efflux, Y88F/H547A hDAT; format: cell-based; parameters: unit not given here; settings: AMPH 5–250 µM, fractional release of cellular [3H]DA
# [8] = biological target: T4, hDAT Y88F/K92M/H547A
# Protocol: as §1
# Twenty-four hours after transfection, cells in 24-well plates were washed twice with Krebs-Ringer-HEPES (KRH) buffer (final concentration in mM: 125 NaCl, 5 KCl, 1.5 MgSO4, 1.25 CaCl2, 1.5 KH2PO4, 10 D-glucose, 25 HEPES, 0.1 EDTA, 0.1 pargyline, and 0.1 L-ascorbic acid; pH 7.4) and incubated with nomifensine (10 µM, final concentration) as nonspecific uptake for 10 min at room temperature. […] Cells were then lysed in 500 μL of 1% SDS for an hour and radioactivity was measured using a liquid scintillation counter (Tri-Carb 2900TR; PerkinElmer Life and Analytical Sciences, Waltham, MA).
# [9] = biological target: T5, WT hDAT; settings: 1 µM PMA; cited from earlier work
# [10] = biological target: T6, hDAT H547A; settings: 1 µM PMA; H547A mutant; cited from earlier work
# [11] = biological target: T5, WT hDAT; test: [3H]WIN 35,428 binding in intact PC12 cells transfected with WT hDAT
# [12] = biological target: T1, hDAT Y88F/H547A; test: [3H]WIN 35,428 binding in intact PC12 cells transfected with Y88F/H547A hDAT; settings: Zn2+ 10 and 100 µM
# [13] = substrate: NCCc1ccc(O)c(O)c1; test: cells, lysate or membranes; settings: other: PC12 cells, Y88F/H547A; pH 7.4; 37.0 °C
# T5 sequence (Q01959 whole entry): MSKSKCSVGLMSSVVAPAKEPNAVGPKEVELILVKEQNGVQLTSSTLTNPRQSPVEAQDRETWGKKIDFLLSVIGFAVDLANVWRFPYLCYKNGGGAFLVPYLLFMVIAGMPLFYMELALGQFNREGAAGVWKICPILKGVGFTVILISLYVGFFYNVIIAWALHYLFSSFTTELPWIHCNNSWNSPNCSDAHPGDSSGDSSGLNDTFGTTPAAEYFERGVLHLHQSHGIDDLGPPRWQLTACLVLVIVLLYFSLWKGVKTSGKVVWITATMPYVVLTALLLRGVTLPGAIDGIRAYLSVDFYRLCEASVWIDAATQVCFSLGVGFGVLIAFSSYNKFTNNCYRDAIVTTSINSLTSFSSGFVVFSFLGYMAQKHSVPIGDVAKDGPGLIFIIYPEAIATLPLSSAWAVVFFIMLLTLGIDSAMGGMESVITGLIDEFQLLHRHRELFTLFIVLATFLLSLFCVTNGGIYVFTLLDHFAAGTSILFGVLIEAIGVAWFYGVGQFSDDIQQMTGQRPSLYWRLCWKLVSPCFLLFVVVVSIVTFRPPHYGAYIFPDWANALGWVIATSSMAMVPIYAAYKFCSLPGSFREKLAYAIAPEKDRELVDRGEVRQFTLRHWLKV
# T6 sequence (Q01959 whole entry H547A): as the sequence (Q01959 whole entry) above, with H547A counted along it
molecule,measurement,setting,value
"CC(N)Cc1ccccc1 (centres unmarked) [AMPH, amphetamine]",AMPH-induced decrease of Vmax of [3H]DA uptake vs control,"[1]; AMPH 1 µM, WT hDAT",32%
same,Vmax of [3H]DA uptake in presence of AMPH,"[1]; AMPH 1 µM, WT hDAT",7.80 ± 0.97 pmol/min/10^5 cells
same,AMPH-induced decrease of Vmax of [3H]DA uptake vs control,"[2]; AMPH 1 µM, Y88F/H547A",42%
same,Vmax of [3H]DA uptake in presence of AMPH,"[2]; AMPH 1 µM, Y88F/H547A",10.9 ± 1.33 pmol/min/10^5 cells
same,Vmax of AMPH-stimulated [3H]DA efflux,[3],0.42 ± 0.03
same,Vmax of AMPH-stimulated [3H]DA efflux,[4],0.28 ± 0.06
same,Vmax of AMPH-stimulated [3H]DA efflux,[5],0.29 ± 0.01
same,Vmax of AMPH-stimulated [3H]DA efflux,[6],0.22 ± 0.04
same,Vmax of AMPH-stimulated [3H]DA efflux,[7],0.20 ± 0.03
"NCCc1ccc(O)c(O)c1 [DA, Dopamine]",Vmax of [3H]DA uptake,"[1]; AMPH experiment, in the absence of AMPH, WT hDAT",11.5 ± 0.94 pmol/min/10^5 cells
same,Km,"[1]; PC12 cells, WT hDAT",1.21 ± 0.17 µM
same,Vmax of [3H]DA uptake,"[1]; PC12 cells, WT hDAT",12.52 ± 0.68 pmol/min/10^5 cells
same,Vmax of [3H]DA uptake,"[2]; AMPH experiment, in the absence of AMPH, Y88F/H547A",18.9 ± 2.81 pmol/min/10^5 cells
same,Vmax of [3H]DA uptake,"[2]; PC12 cells, Y88F/H547A",24.06 ± 4.32 pmol/min/10^5 cells
same,Vmax of [3H]DA uptake,[8]; PC12 cells,0.5 ± 0.31 pmol/min/10^5 cells
same,Km,"[8]; read-out: Km of [3H]DA uptake, PC12 cells",1.89 ± 1.25 µM
"CCCCCCCCCCCCCC(=O)O[C@@H]1[C@@H](C)[C@@]2(O)[C@@H](C=C(CO)C[C@]3(O)C(=O)C(C)=C[C@@H]23)[C@@H]2C(C)(C)[C@]12OC(C)=O [PMA, phorbol 12-myristate 13-acetate]",Reduction of Km of [3H]DA uptake vs control,[1],53%
same,Reduction of Vmax of [3H]DA uptake vs vehicle control,[1],51%
same,Reduction of Km of [3H]DA uptake vs control,[2],63%
same,Reduction of Vmax of [3H]DA uptake vs vehicle control,[2],60%
same,Decrease in Vmax of DA uptake vs control,[9],40%
same,Decrease in Vmax of DA uptake vs control,[10],60%
"[Cl-].[Cl-].[Zn+2] [Zn^2+, ZnCl2]",Reduction of [3H]DA uptake vs control (absence of Zn2+),"[1]; Zn2+ 10 µM, WT hDAT",~ 40%
same,Reduction of [3H]DA uptake vs control (absence of Zn2+),"[1]; Zn2+ 100 µM, WT hDAT",~ 40%
same,Reduction of [3H]DA uptake vs control (absence of Zn2+),"[2]; Zn2+ 10 µM, Y88F/H547A",60%
same,Reduction of [3H]DA uptake vs control (absence of Zn2+),"[2]; Zn2+ 100 µM, Y88F/H547A",71%
same,"Increase of [3H]WIN35,428 binding vs control (absence of Zn2+)",[11]; Zn2+ 10 µM,49%
same,"Increase of [3H]WIN35,428 binding vs control (absence of Zn2+)",[11]; Zn2+ 100 µM,69%
same,"Zn2+-induced increase in [3H]WIN 35,428 binding compared with WT hDAT",[12],significantly diminished
"rTat1–86: recombinant HIV-1 transactivator of transcription protein, residues 1–86 (Diatheva)",Reduction of specific [3H]DA uptake relative to control,"[1]; 140 nM rTat1–86, 20 min preincubation, WT hDAT",31%
same,Tat-induced reduction of [3H]DA uptake relative to control,"[2]; 140 nM rTat1–86, 20 min preincubation, Y88F/H547A, p > 0.05 vs control",attenuated
B1,Km,[13],4.25 ± 1.05 µM
